Experimental data as given in patent publication US9840467B2, “Arylhydrazides containing a 2-pyridone moiety as selective antibacterial agents” (ABAC THERAPEUTICS, S.L., priority 2014, dated 2017).
≈ marks a conversion by molar mass, not a printed value.

Legend:
[1] = tested on: A. baumannii; assay: MIC, CLSI microtiter dilution, A. baumannii; assay type: cell-based, Acinetobacter baumannii; conditions: Acinetobacter baumannii, 24 h
Description: (§1) The products of the present invention were tested for their activity against A. baumannii as well as against the following bacteria: Staphylococcus aureus (S. aureus), Streptococcus pneumoniae (S. pneumoniae), Enterococcus faecium (E. faecium), Pseudomonas aeruginosa (P. aeruginosa), Klebsiella pneumoniae (K. pneumoniae.), Enterobacter aerogenes (E. aerogenes) and Escherichia coli (E. coli).
(§2) Minimal inhibitory concentrations (MICs) were determined using a standard microtiter dilution method, according to the Clinical and Laboratory Standards Institute (CLSI) procedures, in particular according to M07-A9: “Methods for Dilution Antimicrobial Susceptibility Tests for Bacteria That Grow Aerobically; Approved Standard—Ninth Edition”.
(§3) Briefly, compounds were dissolved with dimethyl sulfoxide (DMSO) at 12.8 mg/mL. Serial two-fold dilutions of compounds were performed in DMSO and 1 μl of each dilution were transferred into microtiter culture plates, followed by 100 μl of inoculated culture media to give a final microorganism concentration of 5×10^5 colony-forming units/mL. Plates were incubated at 37° C. for 24 hours and MICs determined as the lowest compound concentration that inhibited growth. Media used in determinations were Cation adjusted Mueller-Hinton Broth for all the microorganisms except for S. pneumoniae and E. faecium whose culture media were supplemented with 2.5% of lysed horse blood. Incubations were performed at air atmosphere except S. pneumoniae cultures that were incubated with 5% CO2 atmosphere.

[2] = tested on: S. aureus; assay: MIC, CLSI microtiter dilution, S. aureus; assay type: cell-based, Staphylococcus aureus; conditions: Staphylococcus aureus, 24 h
Description: as §1, §2, §3

[3] = tested on: S. pneumoniae; assay: MIC, CLSI microtiter dilution, S. pneumoniae; assay type: cell-based, Streptococcus pneumoniae; conditions: Streptococcus pneumoniae, 24 h
Description: as §1, §2, §3

[4] = tested on: E. faecium; assay: MIC, CLSI microtiter dilution, E. faecium; assay type: cell-based, Enterococcus faecium; conditions: Enterococcus faecium, 24 h
Description: as §1, §2, §3

[5] = tested on: P. aeruginosa; assay: MIC, CLSI microtiter dilution, P. aeruginosa; assay type: cell-based, Pseudomonas aeruginosa; conditions: Pseudomonas aeruginosa, 24 h
Description: as §1, §2, §3

[6] = tested on: K. pneumoniae; assay: MIC, CLSI microtiter dilution, K. pneumoniae; assay type: cell-based, Klebsiella pneumoniae; conditions: Klebsiella pneumoniae, 24 h
Description: as §1, §2, §3

[7] = tested on: E. aerogenes; assay: MIC, CLSI microtiter dilution, E. aerogenes; assay type: cell-based, Enterobacter aerogenes; conditions: Klebsiella aerogenes, 24 h
Description: as §1, §2, §3

[8] = tested on: E. coli; assay: MIC, CLSI microtiter dilution, E. coli; assay type: cell-based, Escherichia coli; conditions: Escherichia coli, 24 h
Description: as §1, §2, §3

Structure (SMILES) | MIC [1] [µg/mL] | MIC [2] [µg/mL] | MIC [3] [µg/mL] | MIC [4] [µg/mL] | MIC [5] [µg/mL] | MIC [6] [µg/mL] | MIC [7] [µg/mL] | MIC [8] [µg/mL]
CCn1c(C(=O)NNc2ccc(F)cc2)cccc1=O [Ex. 2, 1-Ethyl-6-oxo-1,6-dihydro-pyridine-2-carboxylic acid N′-(4-fluoro-phenyl)-hydrazide] | 1 (≈ 3.63 µM) | > 128 | > 128 | > 128 | > 128 | > 128 | > 128 | > 128
C#CCn1c(C(=O)NNc2ccc(F)cc2)cccc1=O [Ex. 7, 1-(Prop-2-yn-1-yl)-6-oxo-1,6-dihydropyridine-2-carboxylic acid N′-(4-fluorophenyl)-hydrazide] | 0.25 (≈ 0.876 µM) | > 128 | > 128 | > 128 | > 128 | > 128 | > 128 | > 128
